The test system of series [1] is ALS-MNs.
The test system of series [2] is ALS-MNs. Nature of the series: Arsenite-induced cell death of iPS cell-derived ALS motor neurons (HB9::GFP-positive cell number). The format is cell-based, human. The settings on record: added 16 or 48 hr before arsenite addition, FIG. 12D.
For series [3], the system named is ALS-iPS cell-derived neurons. The series can be described thus: Gene expression category analysis (gene ontology) in ALS-iPS cell-derived neurons. The class given is cell-based, human. The settings on record: AA addition vs non-addition; FIG. 13A.
The next series relates to NEFL. The series can be described thus: NEFL expression level in ALS-MNs (quantitative PCR). Conditions: AA addition. The class given is cell-based, human.
Series [4] relates to TNFα/NF-κB, andorogen receptor and α6β4 integrin pathways. The series can be described thus: Signal transduction pathway analysis in ALS-iPS cell-derived neurons. The format is cell-based, human. Conditions: AA addition vs non-addition; FIG. 13B.
A further series relates to insoluble TDP-43. The series can be described thus: Amount of TDP-43 protein insoluble in 1% Triton X-100 solution in ALS-MNs. The class given is cell-based, human. The settings on record: AA addition, FIGS. 12G and H.
Series [5] deals with ALS-MNs. Nature of the series: Length of neurite in HB9::GFP-positive ALS-MNs (IN Cell Analyzer 2000). The class given is cell-based, human. The settings on record: AA addition vs control group; FIGS. 12E and F.
In the next series the test system is NEFM. The series can be described thus: NEFM expression level in ALS-MNs (quantitative PCR). The format is cell-based, human. The settings on record: AA addition.
Series [6] deals with ALS-MNs. The series can be described thus: MDA (malondialdehyde)-modified protein in total protein by Western blotting. The class given is cell-based, human. Conditions: AA addition vs non-addition, particularly proteins of about 30 kDa to 50 kDa, FIG. 14. The text has this:
Sequentially, to confirm an antioxidant action of AA, the amount of the protein modified with MDA (malondialdehyde) in the total protein was confirmed by Western blotting using 5 to 15% gradient gel in the AA addition group and the AA non-addition group of control MNs or ALS-MNs. […] This tendency was particularly strong in proteins having a size of about 30 kDa to 50 kDa.
On the technique in general: In western blotting, separated proteins are transferred to a membrane and probed.

In the case of arsenite, in the series on ALS-MNs [1], the RNA granule formation result is given as “promotion”, the “insoluble TDP-43” value is recorded as “increase” and the “number of cells subjected to EthD-1-positive injury” value was “significantly high”.

Consider `CC(/C=C/C(=O)NO)=C\[C@@H](C)C(=O)c1ccc(N(C)C)cc1` [trichostatin A], for which the “suppression of arsenite-induced cell death of ALS-MNs” value with ALS-MNs [2] (3 μM) is “did not show such action”.

For the compound `CO[C@]1(C)C[C@@]2(CO2)[C@H](O)[C@@H](/C=C/C(C)=C/C[C@@H]2O[C@H](C)[C@H](NC(=O)/C=C\[C@H](C)OC(C)=O)C[C@@H]2C)O1` [splicesostatin A], in the series with ALS-MNs [2] (100 ng/ml), the “suppression of arsenite-induced cell death of ALS-MNs” value is “did not show such action”.

As to `CCCCCCCCCCCCCCCc1cccc(O)c1C(=O)O` [anacardic acid], in [3], the “factors relating to intermediate filament cytoskeleton, intermediate filament and keratin filament” value is given as “increased”; the “factors relating to translation, RNP complex, RNA binding, RNA metabolism pathway, RNA processing, RNA splicing and spliceosomal complex” value was “decreased”. Besides, in the series with NEFL, the “expression level of NEFL” value is “increased”. For the same compound, in [4], the “TNFα/NF-κB, andorogen receptor and α6β4 integrin pathways” value is recorded as “decreased”. For the same compound, the “amount of insoluble TDP-43” value in the series with insoluble TDP-43 is recorded as “decreased”. Also, in the series with ALS-MNs [5], the “length of neurite in ALS-MNs” value was “significantly increased”. In the series with NEFM, the “expression level of NEFM” value is listed as “increased”. The “amount of MDA-modified protein in the total protein” value with ALS-MNs [6] is “decreased the amount”.

The values above are taken from US20150045330A1, “PROPHYLACTIC AND THERAPEUTIC DRUG FOR AMYOTROPHIC LATERAL SCLEROSIS AND METHOD OF SCREENING THEREFOR” (priority 2012, published 2015).
